This note sets out measurements from ChEMBL document CHEMBL5291721, “A preclinical secondary pharmacology resource illuminates target-adverse drug reaction associations of marketed drugs” (Nat Commun, 2023).

For orientation: AC50 means the concentration at which the activity in the assay is half-maximal. Lower therefore signals greater potency.

Structures are written as SMILES. *1 amine or outer side, *2 acyl side, *3 side chain or, on linkers, in order; H or OH if unused. Where a SMILES comes first, the peptide text is derived from it. Bridges are numbered along the chain shown (N, C = ends). [ ]: non-standard residue; d: D form. The star is where a group is joined. hTyr(3S-OH,4S-OH,3'-OSO3H) = N[C@H](C(=O)O)[C@H](O)[C@@H](O)c1ccc(O)c(OS(=O)(=O)O)c1; Orn(4R-OH,5R-OH) = O=C([C@H](C[C@@H](O)[C@@H](O)N[*:3])N[*:1])[*:2]; Pro(3S-OH,4S-Me) = C[C@H]1CN[C@H](C(=O)O)[C@H]1O; X1 = CCCCCOc1ccc(-c2cc(-c3ccc(C(=O)*)cc3)no2)cc1; Gln(3R-OH) = NC(=O)C[C@@H](O)[C@H](N)C(=O)O; Hyp = O=C(O)[C@@H]1C[C@@H](O)CN1
Further: assay procedure not described here.

The test addresses T1, Alpha-1A adrenergic receptor (Homo sapiens, UniProt P35348).
T1 sequence (P35348 whole entry): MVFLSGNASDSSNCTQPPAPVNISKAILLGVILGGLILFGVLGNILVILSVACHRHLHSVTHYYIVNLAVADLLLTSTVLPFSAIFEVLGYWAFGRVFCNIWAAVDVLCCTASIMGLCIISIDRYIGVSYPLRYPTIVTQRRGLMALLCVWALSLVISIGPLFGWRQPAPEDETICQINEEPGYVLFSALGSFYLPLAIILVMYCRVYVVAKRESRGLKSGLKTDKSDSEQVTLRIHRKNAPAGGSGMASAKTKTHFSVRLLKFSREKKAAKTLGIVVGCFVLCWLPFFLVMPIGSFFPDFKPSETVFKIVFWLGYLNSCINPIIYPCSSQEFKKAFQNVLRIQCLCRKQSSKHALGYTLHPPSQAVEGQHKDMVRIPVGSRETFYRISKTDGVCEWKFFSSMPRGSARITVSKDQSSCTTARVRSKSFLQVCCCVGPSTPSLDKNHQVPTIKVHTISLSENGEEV
Type of test: functional, cell-based.
In the case of `COc1nccnc1NS(=O)(=O)c1ccc(N)cc1`, the AC50 is > 30 µM. Take `O=C(Nc1cccc2c(=O)cc(-c3nnn[nH]3)oc12)c1ccc(OCCCCc2ccccc2)cc1`: the AC50 was > 30 µM.

Consider `NC(=O)c1nc(F)c[nH]c1=O`, for which the half-maximal activity concentration (AC50) is > 30 µM. `O=S(=O)(O)CCS` [2-MERCAPTOETHANESULFONIC ACID]: the AC50 is > 30 µM.

Take `O=C(O)COc1nn(Cc2ccccc2)c2ccccc12` [BENDAZAC]: the half-maximal activity concentration (AC50) was > 30 µM. The figure for `Cc1ccc([C@@H]2O[C@H](CO)[C@@H](O)[C@H](O)[C@H]2O)cc1Cc1ccc(-c2ccc(F)cc2)s1` [CANAGLIFLOZIN ANHYDROUS] is > 30 µM; for `O=C(O)CCCc1ccc(N(CCCl)CCCl)cc1` [CHLORAMBUCIL] it is > 30 µM; for `CN(C)CCN(Cc1ccc(Cl)cc1)c1ccccn1` [CHLOROPYRAMINE] it is 6.52 µM. The figure for `O=C(O)c1cc(=O)c2ccccc2o1` [CHROMOCARB] is > 30 µM. On to `CN(CC(=O)O)C(=N)N` [CREATINE], for which the AC50 was > 30 µM. Consider `N[C@@H](CSSC[C@H](N)C(=O)O)C(=O)O` [CYSTINE], for which the AC50 was > 30 µM. The figure for `Cn1c(=O)c2c(ncn2CC(O)CO)n(C)c1=O` (stereo not drawn) [DYPHYLLINE] is > 30 µM. The value for `C[C@]12CC[C@@H]3c4ccc(O)cc4CC[C@H]3[C@@H]1CC[C@@H]2OC(=O)CCC1CCCC1` [ESTRADIOL CYPIONATE] was > 30 µM.

Take `CC1(C)O[C@@H]2C[C@H]3[C@@H]4CCC5=CC(=O)CC[C@]5(C)[C@@]4(F)[C@@H](O)C[C@]3(C)[C@]2(C(=O)CCl)O1` [HALCINONIDE]: the AC50 is > 30 µM.

Take `C[C@]12CCC(=O)C=C1CC[C@@H]1[C@@H]2[C@@H](O)C[C@@]2(C)[C@H]1CC[C@]2(O)C(=O)COC(=O)CCC(=O)O` [HYDROCORTISONE HEMISUCCINATE ANHYDROUS]: the AC50 was > 30 µM.

`N=C(N)NCc1cccc([123I])c1` [IOBENGUANE I 123]: the activity was half-maximal at 10.7 µM (AC50).

As to `CC(C)(N)C(=O)N[C@H](Cc1c[nH]c2ccccc12)C(=O)N[C@H](Cc1c[nH]c2ccccc12)NC=O` [MACIMORELIN], the half-maximal activity concentration (AC50) was > 30 µM. For `C=C1c2c(Cl)ccc(O)c2C(=O)C2=C(O)[C@]3(O)C(=O)C(C(N)=O)=C(O)[C@@H](N(C)C)[C@@H]3[C@@H](O)[C@H]12` [MECLOCYCLINE], the AC50 is > 30 µM. The figure for `Cc1cc2c(OCC(O)CNC(C)C)cccc2[nH]1` (stereo not drawn) [MEPINDOLOL] is > 30 µM. Consider `CCCCCOc1ccc(-c2cc(-c3ccc(C(=O)N[C@H]4C[C@@H](O)[C@@H](O)NC(=O)[C@@H]5[C@@H](O)[C@@H](C)CN5C(=O)[C@H]([C@H](O)CC(N)=O)NC(=O)[C@H]([C@H](O)[C@@H](O)c5ccc(O)c(OS(=O)(=O)O)c5)NC(=O)[C@@H]5C[C@@H](O)CN5C(=O)[C@H]([C@@H](C)O)NC4=O)cc3)no2)cc1` [MICAFUNGIN] (X1-[Orn(4R-OH,5R-OH)]T[Hyp][hTyr(3S-OH,4S-OH,3'-OSO3H)][Gln(3R-OH)][Pro(3S-OH,4S-Me)]; lactam 1-C), for which the AC50 was > 30 µM. Turning to `CCOc1cc(N)c(Cl)cc1C(=O)NCC1CN(Cc2ccc(F)cc2)CCO1` (stereo not drawn) [MOSAPRIDE], the AC50 is > 30 µM.

With `CCOc1ccc2ccccc2c1C(=O)N[C@@H]1C(=O)N2[C@@H]1SC(C)(C)[C@@H]2C(=O)O` [NAFCILLIN], the AC50 was > 30 µM. Take `CN1CCC[C@H]1c1cccnc1` [NICOTINE]: the AC50 is > 30 µM. In turn, `C#C[C@]1(O)CC[C@H]2[C@@H]3CCC4=C(CCC(=O)C4)[C@H]3CC[C@@]21C` [NORETHYNODREL] showed an AC50 of 17.4 µM. With `CCCCCCCCCCC[C@@H](C[C@@H]1OC(=O)[C@H]1CCCCCC)OC(=O)[C@H](CC(C)C)NC=O` [ORLISTAT], the AC50 was > 30 µM. The figure for `O=C1[C@H]2CCCC[C@H]2C(=O)N1CCCCN1CCN(c2nsc3ccccc23)CC1` [PEROSPIRONE] is 0.003 µM.

Take `CN(C)CCC(c1ccccc1)c1ccccn1` (stereo not drawn) [PHENIRAMINE]: the AC50 is > 30 µM. Molecule `CC(C)COc1ccc(CNC(=O)N(Cc2ccc(F)cc2)C2CCN(C)CC2)cc1` [PIMAVANSERIN] showed an AC50 of 11.4 µM.
